Experimental data published in patent US20230233690A1, “ANDROGEN RECEPTOR PROTEIN DEGRADERS” (THE REGENTS OF THE UNIVERSITY OF MICHIGAN, priority 2020, published 2023).
Where two headings read alike, the source gives them in different places.

Experiments:
[1] = PK parameters in male mice (Table 9); assay type: in vivo; settings: for Vd: read-out: Vss; for F: PO 3 mg/kg vs IV 1 mg/kg
Method: The pharmacokinetics (PK) of representative Compounds of the Disclosure were evaluated in mice or rats to provide an assessment of their oral bioavaibility. All animal experiments were performed under the guidelines of the University of Michigan Committee for Use and Care of Animals and using an approved animal protocol.

AR protein = molecular target: T1, AR protein (Homo sapiens, UniProt P10275); assay: Western blotting of AR protein degradation in VCaP cells; assay type: cell-based
T1 construct: endogenous in cells; host or cells: VCaP
T1 sequence (P10275 1-920): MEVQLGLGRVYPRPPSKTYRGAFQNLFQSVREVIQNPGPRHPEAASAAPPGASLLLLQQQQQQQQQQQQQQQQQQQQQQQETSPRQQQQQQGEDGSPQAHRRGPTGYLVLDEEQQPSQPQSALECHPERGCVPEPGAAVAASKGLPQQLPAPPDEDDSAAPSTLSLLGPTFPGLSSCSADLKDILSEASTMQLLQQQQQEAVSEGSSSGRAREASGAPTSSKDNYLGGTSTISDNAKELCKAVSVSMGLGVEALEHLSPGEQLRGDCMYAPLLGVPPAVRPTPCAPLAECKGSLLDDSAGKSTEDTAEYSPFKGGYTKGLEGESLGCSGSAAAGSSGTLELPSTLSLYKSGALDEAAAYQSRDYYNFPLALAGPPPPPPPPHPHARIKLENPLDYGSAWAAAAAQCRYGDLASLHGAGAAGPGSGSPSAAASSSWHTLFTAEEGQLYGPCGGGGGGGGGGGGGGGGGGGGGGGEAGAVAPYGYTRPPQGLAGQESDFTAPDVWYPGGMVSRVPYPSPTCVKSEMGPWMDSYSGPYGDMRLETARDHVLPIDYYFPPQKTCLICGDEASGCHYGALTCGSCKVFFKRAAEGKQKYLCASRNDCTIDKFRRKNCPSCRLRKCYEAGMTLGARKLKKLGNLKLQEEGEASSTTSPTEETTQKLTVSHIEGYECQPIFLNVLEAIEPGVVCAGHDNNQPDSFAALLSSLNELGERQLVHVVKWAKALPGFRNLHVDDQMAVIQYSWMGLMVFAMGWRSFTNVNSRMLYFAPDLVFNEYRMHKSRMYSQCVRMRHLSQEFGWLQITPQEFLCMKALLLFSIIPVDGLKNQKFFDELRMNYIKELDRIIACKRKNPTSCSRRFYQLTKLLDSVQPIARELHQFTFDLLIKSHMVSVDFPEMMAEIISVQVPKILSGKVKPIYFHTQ
Method: The treated cells were lysed with RIPA buffer. […] GAPDH was used as a loading control.
Bands were quantified with ImageJ software. The relative numbers of each band obtained from normalization with its corresponding GAPDH level were compared with Prism 8 software. The DC50 values were produced from Prism 8, and the DC90 values were calculated with an equation=Bottom+(Top−Bottom)/(1+10^((Log EC50−X)*HillSlope) based on DC50 and Hillslope values.

[2] = ICR, mouse, in vivo, IV 1 mg/kg

| Compound | AUC(0-t) ([1]; IV 1 mg/kg) [ng·h/mL] | T1/2 ([1]; IV 1 mg/kg) [h] | AUC(0-t) ([1]; PO 3 mg/kg) [ng·h/mL] | Cmax ([1]; PO 3 mg/kg) [ng/mL] | T1/2 ([1]; PO 3 mg/kg) [h] | Tmax ([1]; PO 3 mg/kg) [h] | F [1] [%] | % AR protein degradation in VCaP Cells (AR protein; 0.001 μM) [%] | % AR protein degradation in VCaP Cells (AR protein; 0.01 μM) [%] | % AR protein degradation in VCaP Cells (AR protein; 0.1 μM) [%] | % AR protein degradation in VCaP Cells (AR protein; 1 μM) [%] | further results |
| --- | --- | --- | --- | --- | --- | --- | --- | --- | --- | --- | --- | --- |
| CN(c1ccc(C#N)c(Cl)c1)[C@H]1CC[C@H](NC(=O)c2ccc(N3CCN(C4CCN(c5ccc6c(c5)C(=O)N(C5CCC(=O)NC5=O)C6=O)CC4)CC3)cc2)CC1 (stereo partly drawn) [Cpd. No. 235, N-((1r,4r)-4-((3-chloro-4-cyanophenyl)(methyl)amino)cyclohexyl)-4-(4-(1-(2-(2,6-dioxopiperidin-3-yl)-1,3-dioxoisoindolin-5-yl)piperidin-4-yl)piperazin-1-yl)benzamide] | 3366 | 7.6 | 3001 | 256.1 | 7.0 | 4.7 | 29 | 94 | 99 | 99.9 | – | Vd [1, 2]: 2.64 L/kg; Cl ([1]; IV 1 mg/kg): 4.5 mL/min/kg |
| N#Cc1ccc(O[C@H]2CC[C@H](NC(=O)c3ccc(N4CCC(N5CCN(c6ccc7c(c6)C(=O)N(C6CCC(=O)NC6=O)C7=O)CC5)CC4)cc3)C2)cc1Cl (stereo partly drawn) [compound 226, N-((1S,3S)-3-(3-chloro-4-cyanophenoxy)cyclopentyl)-4-(4-(4-(2-(2,6-dioxopiperidin-3-yl)-1,3-dioxoisoindolin-5-yl)piperazin-1-yl)piperidin-1-yl)benzamide] | – | – | – | – | – | – | – | 2 | 3 | 23 | 18 | – |
| N#Cc1ccc(O[C@@H]2CCC[C@@H](NC(=O)c3ccc(N4CCC(N5CCN(c6ccc7c(c6)C(=O)N(C6CCC(=O)NC6=O)C7=O)CC5)CC4)cc3)CC2)cc1Cl (stereo partly drawn) [compound 227, N-((1R,4R)-4-(3-chloro-4-cyanophenoxy)cycloheptyl)-4-(4-(4-(2-(2,6-dioxopiperidin-3-yl)-1,3-dioxoisoindolin-5-yl)piperazin-1-yl)piperidin-1-yl)benzamide] | – | – | – | – | – | – | – | 22 | 36 | 34 | 43 | – |
| N#Cc1ccc(O[C@H]2CCC[C@H](NC(=O)c3ccc(N4CCC(N5CCN(c6ccc7c(c6)C(=O)N(C6CCC(=O)NC6=O)C7=O)CC5)CC4)cc3)CCC2)cc1Cl (stereo partly drawn) [compound 228, N-((1r,5r)-5-(3-chloro-4-cyanophenoxy)cyclooctyl)-4-(4-(4-(2-(2,6-dioxopiperidin-3-yl)-1,3-dioxoisoindolin-5-yl)piperazin-1-yl)piperidin-1-yl)benzamide] | – | – | – | – | – | – | – | 12 | 21 | 51 | 47 | – |
| N#Cc1ccc(N[C@H]2CC[C@H](NC(=O)c3ccc(N4CCC(N5CCN(c6ccc7c(c6)C(=O)N(C6CCC(=O)NC6=O)C7=O)CC5)CC4)cc3)CC2)cc1Cl (stereo partly drawn) [compound 229, N-((1r,4r)-4-((3-chloro-4-cyanophenyl)amino)cyclohexyl)-4-(4-(4-(2-(2,6-dioxopiperidin-3-yl)-1,3-dioxoisoindolin-5-yl)piperazin-1-yl)piperidin-1-yl)benzamide] | – | – | – | – | – | – | – | 51 | 62 | 52 | 43 | – |
| CN(c1ccc(C#N)c(Cl)c1)[C@H]1CC[C@H](NC(=O)c2ccc(N3CCC(N4CCN(c5ccc6c(c5)C(=O)N(C5CCC(=O)NC5=O)C6=O)CC4)CC3)cc2)CC1 (stereo partly drawn) [compound 230, N-((1r,4r)-4-((3-chloro-4-cyanophenyl)(methyl)amino)cyclohexyl)-4-(4-(4-(2-(2,6-dioxopiperidin-3-yl)-1,3-dioxoisoindolin-5-yl)piperazin-1-yl)piperidin-1-yl)benzamide] | 2857 | 6.6 | 3811 | 251 | 10.6 | 5.3 | 44 | – | – | – | – | clearance [1, 2]: 5.5 mL/min/kg; Vss ([1]; IV 1 mg/kg): 2.73 L/kg |
| CCN(c1ccc(C#N)c(Cl)c1)[C@H]1CC[C@H](NC(=O)c2ccc(N3CCC(N4CCN(c5ccc6c(c5)C(=O)N(C5CCC(=O)NC5=O)C6=O)CC4)CC3)cc2)CC1 (stereo partly drawn) [compound 231, N-((1r,4r)-4-((3-chloro-4-cyanophenyl)(ethyl)amino)cyclohexyl)-4-(4-(4-(2-(2,6-dioxopiperidin-3-yl)-1,3-dioxoisoindolin-5-yl)piperazin-1-yl)piperidin-1-yl)benzamide] | – | – | – | – | – | – | 30 | – | – | – | – | clearance [1, 2]: 31.2 mL/min/kg; half-life [1, 2]: 4.1 h; AUC(0-t) ([1]; ICR, mouse, in vivo, IV 1 mg/kg, read-out: AUC(0-t)): 539 ng·h/mL; Vd [1, 2]: 4.34 L/kg; half-life ([1]; ICR, mouse, in vivo, PO 3 mg/kg): 2.4 h; AUC(0-t) ([1]; ICR, mouse, in vivo, PO 3 mg/kg, read-out: AUC(0-t)): 492 ng·h/mL; Cmax ([1]; ICR, mouse, in vivo, PO 3 mg/kg, read-out: Cmax): 102 ng/mL; Tmax ([1]; ICR, mouse, in vivo, PO 3 mg/kg, read-out: Tmax): 1.7 h |
| CN(c1ccc(C#N)c(Cl)c1)[C@H]1CC[C@H](NC(=O)c2ccc(N3CCN(CC4CN(c5ccc6c(c5)C(=O)N(C5CCC(=O)NC5=O)C6=O)C4)CC3)cc2)CC1 (stereo partly drawn) [compound 237, N-((1r,4r)-4-((3-chloro-4-cyanophenyl)(methyl)amino)cyclohexyl)-4-(4-((1-(2-(2,6-dioxopiperidin-3-yl)-1,3-dioxoisoindolin-5-yl)azetidin-3-yl)methyl)piperazin-1-yl)benzamide] | 1226 | 3.8 | 1111 | 127 | 4.3 | 5.3 | 30 | – | – | – | – | Cl ([1]; IV 1 mg/kg): 13.7 mL/min/kg; Vss ([1]; IV 1 mg/kg): 3.92 L/kg |
| CC(O)(CS(=O)(=O)c1ccc(N2CCN(C3CCN(c4ccc5c(c4)C(=O)N(C4CCC(=O)NC4=O)C5=O)CC3)CC2)cc1)C(=O)Nc1ccc(C#N)c(C(F)(F)F)c1 (stereo not drawn) [compound 241, N-(4-cyano-3-(trifluoromethyl)phenyl)-3-((4-(4-(1-(2-(2,6-dioxopiperidin-3-yl)-1,3-dioxoisoindolin-5-yl)piperidin-4-yl)piperazin-1-yl)phenyl)sulfonyl)-2-hydroxy-2-methylpropanamide] | – | – | – | – | – | – | – | 7 | 13 | −2 | 27 | – |
| CC1(C)C(=O)N(c2ccc(C#N)c(C(F)(F)F)c2)C(=S)N1c1ccc(C(=O)N2CCN(C3CCN(c4ccc5c(c4)C(=O)N(C4CCC(=O)NC4=O)C5=O)CC3)CC2)c(F)c1 (stereo not drawn) [compound 242, 4-(3-(4-(4-(1-(2-(2,6-dioxopiperidin-3-yl)-1,3-dioxoisoindolin-5-yl)piperidin-4-yl)piperazine-1-carbonyl)-3-fluorophenyl)-4,4-dimethyl-5-oxo-2-thioxoimidazolidin-1-yl)-2-(trifluoromethyl)benzonitrile] | – | – | – | – | – | – | – | 14 | 6 | 18 | 31 | – |
